Results taken from ChEMBL document CHEMBL3132774, “The advantage of biosensor analysis over enzyme inhibition studies for slow dissociating inhibitors characterization of hydroxamate-based matrix metalloproteinase-12 inhibitors” (Medchemcomm, 2013).
pKi: −log10 of the molar value.

What was measured:
[1] = target: T1, Macrophage metalloelastase (Homo sapiens, UniProt P39900); test: Inhibition of human recombinant MMP12 by SPR assay
Target sequence in this assay (P39900 106-470 limits assumed): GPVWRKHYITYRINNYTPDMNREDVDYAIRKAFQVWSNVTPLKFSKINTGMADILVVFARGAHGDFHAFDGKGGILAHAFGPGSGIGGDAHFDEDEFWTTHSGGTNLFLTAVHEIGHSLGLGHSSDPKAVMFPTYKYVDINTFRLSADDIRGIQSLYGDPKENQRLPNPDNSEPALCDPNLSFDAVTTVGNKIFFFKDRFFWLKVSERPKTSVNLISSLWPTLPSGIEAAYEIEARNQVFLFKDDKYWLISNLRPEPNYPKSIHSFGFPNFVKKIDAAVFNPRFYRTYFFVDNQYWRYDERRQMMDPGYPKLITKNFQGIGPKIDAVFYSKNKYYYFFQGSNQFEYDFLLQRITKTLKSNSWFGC

[2] = target: T1, Macrophage metalloelastase; test: Inhibition of human recombinant MMP12 using Mca-Pro-Leu-Gly-Leu-Dpa-Ala-Arg-NH2 as substrate incubated for 10 mins prior to substrate addition by spectrophotometry; details: read-out: Ki(app)
Target sequence in this assay (P39900 whole entry): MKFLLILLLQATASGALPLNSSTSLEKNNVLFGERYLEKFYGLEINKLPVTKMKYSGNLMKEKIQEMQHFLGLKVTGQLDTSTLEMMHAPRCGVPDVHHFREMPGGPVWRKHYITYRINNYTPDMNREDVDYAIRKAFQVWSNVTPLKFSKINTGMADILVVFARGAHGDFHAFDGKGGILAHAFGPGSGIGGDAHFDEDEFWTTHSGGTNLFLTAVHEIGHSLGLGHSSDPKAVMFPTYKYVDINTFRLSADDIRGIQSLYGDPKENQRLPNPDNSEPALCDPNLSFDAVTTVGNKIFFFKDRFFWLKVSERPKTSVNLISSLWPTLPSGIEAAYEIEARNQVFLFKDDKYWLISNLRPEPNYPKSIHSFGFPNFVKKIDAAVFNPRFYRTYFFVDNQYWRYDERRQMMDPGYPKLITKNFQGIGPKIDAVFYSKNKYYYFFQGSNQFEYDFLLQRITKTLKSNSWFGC

[3] = target: T1, Macrophage metalloelastase; test: Time dependent inhibition of human recombinant MMP12 by progress curve enzyme inhibition assay; details: read-out: Ki(app)
Target sequence in this assay (P39900 whole entry): as above

inhibition [1]	pKi [2]	pKi [3]	Structure (SMILES)
Dose-dependent effect	7.32	–	CNC(=O)[C@H](Cc1ccccc1)NC(=O)[C@H](CCc1ccc(-c2cccnc2)cc1)CC(=O)O
Dose-dependent effect	8.42	9.28	CNC(=O)[C@H](Cc1c[nH]c2ccccc12)NC(=O)[C@@H](CC(=O)NO)CC(C)C [ILOMASTAT]
–	7.52	8.45	CCN(CC)Cc1cc(C)c(N(Cc2ccccc2)S(=O)(=O)c2ccc(OC)cc2)cc1C(=O)NO
–	9.00	–	CNC(=O)[C@H](Cc1ccccc1)NC(=O)[C@H](CCc1ccc(-c2cccnc2)cc1)CC(=O)NO
–	8.72	9.21	COc1ccc(S(=O)(=O)N2CC(C)(C)CN(S(=O)(=O)c3ccc(OC)cc3)C2C(=O)NO)cc1
